Measurements taken from patent US10954214B2 (Janssen Pharmaceutica NV, priority 2016, dated 2021).
Read-outs that look alike come from different tables or passages of the source.

Experiments:
[1] = test system: IL6 secretion by TMD8 ABC-DLBCL cells; assay: Human IL6 Mesoscale assay (TMD-8); type: cell-based; details: Homo sapiens, TMD8; TMD-8 cells, 24 h
Procedure, shortened: (§1)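 100,000 cells/well treated with compound in 9 twofold steps from 15 μM to 58.6 nM (0.3% DMSO) for 24 h at 37° C; supernatant cytokine measured by MSD electrochemiluminescence sandwich immunoassay. DMSO wells set maximum signal, BTK inhibitor RN486 (30 nM to 131 pM) set maximum inhibition.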

[2] = test system: IL10 secretion by TMD8 ABC-DLBCL cells; assay: Human IL10 Mesoscale assay (TMD-8); type: cell-based; details: Homo sapiens, TMD8; TMD-8 cells, 24 h
Procedure, shortened: as §1

[3] = test system: IL6 secretion by OCI-LY3 ABC-DLBCL cells; assay: Human IL6 Mesoscale assay (OCI-LY3); type: cell-based; details: 24 h
Procedure, shortened: as §1

[4] = test system: IL10 secretion by OCI-LY3 ABC-DLBCL cells; assay: Human IL10 Mesoscale assay (OCI-LY3); type: cell-based; details: 24 h
Procedure, shortened: as §1

[5] = test system: OCI-Ly3 cells; assay: 4-day proliferation assay, OCI-Ly3; type: cell-based, human; details: 4 days incubation, CellTiterGLO, read-out: Anti-proliferation: OCI-LY-3 IC50
Procedure, shortened: (§2)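 TMD8 and OCI-Ly3 cells were seeded at 10,000 per well and grown 4 days at 37° C, 5% CO2 without beta-mercaptoethanol. Viability was read by CellTiter-Glo luminescence. IC50 and Hill slope were fitted relative to the low control median.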

[6] = test system: TMD8 cells; assay: 4-day proliferation assay, TMD8; type: cell-based; details: 4 days incubation, CellTiterGLO, read-out: Anti-proliferation: TMD-8 IC50
Procedure, shortened: as §2

[7] = target: full-length MALT1 protein (Strep-MALT1(1-824)-His) (Homo sapiens (Human), UniProt Q9UDY8); assay: MALT1 Biochemical Protease Assay (Ac-LRSR-AMC substrate); details: 10 nM FL MALT1, 200 μM Ac-LRSR-AMC, 4 h at RT; read-out: MALT1_Biochemical activity (Ac-LRSR-amc) IC50
Chain of full-length MALT1 protein (Strep-MALT1(1-824)-His) (Q9UDY8 whole entry): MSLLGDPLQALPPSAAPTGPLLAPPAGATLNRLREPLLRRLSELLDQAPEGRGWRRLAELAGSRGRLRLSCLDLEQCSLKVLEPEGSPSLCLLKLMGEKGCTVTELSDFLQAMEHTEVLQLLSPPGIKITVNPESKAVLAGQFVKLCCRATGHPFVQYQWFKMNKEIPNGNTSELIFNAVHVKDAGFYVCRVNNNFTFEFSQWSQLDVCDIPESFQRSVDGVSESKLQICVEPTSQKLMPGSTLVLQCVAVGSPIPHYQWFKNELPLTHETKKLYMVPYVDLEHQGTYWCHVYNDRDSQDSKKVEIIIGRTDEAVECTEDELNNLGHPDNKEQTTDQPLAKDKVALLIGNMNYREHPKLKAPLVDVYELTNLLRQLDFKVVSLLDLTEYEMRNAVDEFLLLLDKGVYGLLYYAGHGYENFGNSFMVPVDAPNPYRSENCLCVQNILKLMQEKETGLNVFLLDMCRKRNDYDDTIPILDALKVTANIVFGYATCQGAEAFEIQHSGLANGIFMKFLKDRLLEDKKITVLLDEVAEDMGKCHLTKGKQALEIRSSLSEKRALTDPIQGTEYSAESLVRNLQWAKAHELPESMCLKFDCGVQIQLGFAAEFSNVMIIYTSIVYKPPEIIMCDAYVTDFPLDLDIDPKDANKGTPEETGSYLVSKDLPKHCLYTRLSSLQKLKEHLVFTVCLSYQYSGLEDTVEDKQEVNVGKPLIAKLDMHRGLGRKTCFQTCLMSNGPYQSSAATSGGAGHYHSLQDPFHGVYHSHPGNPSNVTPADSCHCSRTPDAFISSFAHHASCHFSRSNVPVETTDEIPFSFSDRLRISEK
Procedure, shortened: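 Full-length MALT1 pre-incubated with compounds (30 μM to 0.5 nM, 11 threefold steps) for 50 min at RT. After Ac-LRSR-AMC was added, the reaction ran 4 h at RT and AMC fluorescence was read. IC50 and Hill slope from curve fitting against no-enzyme and no-compound controls.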

| IC50 [1] | IC50 [2] | IC50 ([3]; Homo sapiens) | IC50 ([4]; Homo sapiens) | IC50 ([5]; Homo sapiens, 96 h) | IC50 [7] | Compound | IC50 ([6]; Homo sapiens, 96 h) | IC50 [3] | IC50 [4] | IC50 [5] | IC50 [6] |
| --- | --- | --- | --- | --- | --- | --- | --- | --- | --- | --- | --- |
| 110 nM | 100 nM | 34 nM | 40 nM | 411 nM | – | N#Cc1cc(NC(=O)c2cnn(-c3ccnc4ccccc34)c2C(F)(F)F)ccc1-n1nccn1 | 3800 nM | – | – | – | – |
| 120 nM | 123 nM | 18 nM | 14 nM | 179 nM | 16 nM | O=C(Nc1ccc(-n2nccn2)c(Cl)c1)c1cnn(-c2cccc3c(=O)[nH]ccc23)c1C(F)(F)F [Cpd 129, N-(3-chloro-4-(2H-1,2,3-triazol-2-yl)phenyl)-1-(1-oxo-1,2-dihydroisoquinolin-5-yl)-5-(trifluoromethyl)-1H-pyrazole-4-carboxamide] | 2460 nM | – | – | – | – |
| 54 nM | 46 nM | 13 nM | 10 nM | 1210 nM | 12 nM | O=C(Nc1cnc(-n2ncc(CO)n2)c(Cl)c1)c1cnn(-c2cccc3c(=O)[nH]ccc23)c1C(F)(F)F [Cpd 115, N-(5-chloro-6-(4-(hydroxymethyl)-2H-1,2,3-triazol-2-yl)pyridin-3-yl)-1-(1-oxo-1,2-dihydroisoquinolin-5-yl)-5-(trifluoromethyl)-1H-pyrazole-4-carboxamide] | 20000 nM | – | – | – | – |
| – | – | 117 nM | 120 nM | 782 nM | 28 nM | O=C(Nc1cnc(-n2nccn2)c(Cl)c1)c1cnn(-c2cccc3ncc(Cl)n23)c1C(F)(F)F [Cpd 201, N-(5-chloro-6-(2H-1,2,3-triazol-2-yl)pyridin-3-yl)-1-(3-chloroimidazo[1,2-a]pyridin-5-yl)-5-(trifluoromethyl)-1H-pyrazole-4-carboxamide] | 3630 nM | – | – | – | – |
| – | – | 95 nM | 71 nM | 464 nM | 550 nM | O=C(Nc1cnc(-n2nccn2)c(Cl)c1)c1cnn(-c2cc(=O)[nH]c3ccccc23)c1C(F)(F)F [Cpd 418, N-(5-chloro-6-(2H-1,2,3-triazol-2-yl)pyridin-3-yl)-1-(2-oxo-1,2-dihydroquinolin-4-yl)-5-(trifluoromethyl)-1H-pyrazole-4-carboxamide] | 3630 nM | – | – | – | – |
| – | – | 72 nM | 40 nM | 193 nM | 13 nM | N#Cc1cc(NC(=O)c2cnn(-c3cccc4nnsc34)c2C(F)(F)F)cnc1-n1nccn1 [Cpd 119, 1-(benzo[d][1,2,3]thiadiazol-7-yl)-N-(5-cyano-6-(2H-1,2,3-triazol-2-yl)pyridin-3-yl)-5-(trifluoromethyl)-1H-pyrazole-4-carboxamide] | 355 nM | – | – | – | – |
| – | – | 102 nM | 59 nM | 692 nM | 54 nM | O=C(Nc1cc(Cl)c(-n2nccn2)cc1F)c1cnn(-c2cncc3c(F)cccc23)c1C(F)(F)F [Cpd 302, N-(5-chloro-2-fluoro-4-(2H-1,2,3-triazol-2-yl)phenyl)-1-(8-fluoroisoquinolin-4-yl)-5-(trifluoromethyl)-1H-pyrazole-4-carboxamide] | 955 nM | – | – | – | – |
| – | – | 22 nM | 13 nM | 1060 nM | 32 nM | Cc1cc(-n2nccn2)c(C#N)cc1NC(=O)c1cnn(-c2cccc3c(=O)[nH]ccc23)c1C(F)(F)F [Cpd 446, N-(5-cyano-2-methyl-4-(2H-1,2,3-triazol-2-yl)phenyl)-1-(1-oxo-1,2-dihydroisoquinolin-5-yl)-5-(trifluoromethyl)-1H-pyrazole-4-carboxamide] | > 20000 nM | – | – | – | – |
| – | – | 46 nM | 24 nM | 285 nM | 13 nM | Cc1cnn(-c2ncc(NC(=O)c3cnn(-c4cccc5ncccc45)c3C(F)(F)F)cc2Cl)n1 [Cpd 125, N-(5-chloro-6-(4-methyl-2H-1,2,3-triazol-2-yl)pyridin-3-yl)-1-(quinolin-5-yl)-5-(trifluoromethyl)-1H-pyrazole-4-carboxamide] | 1020 nM | – | – | – | – |
| – | – | 58 nM | 50 nM | 1070 nM | 24 nM | CC(O)c1ncc(-n2ncc(C(=O)Nc3cnc(-n4nccn4)c(Cl)c3)c2C(F)(F)F)c2ccsc12 (stereo not drawn) [Cpd 376, N-(5-chloro-6-(2H-1,2,3-triazol-2-yl)pyridin-3-yl)-1-(7-(1-hydroxyethyl)thieno[2,3-c]pyridin-4-yl)-5-(trifluoromethyl)-1H-pyrazole-4-carboxamide] | 1440 nM | – | – | – | – |
| – | – | 141 nM | 95 nM | 692 nM | 30 nM | NC(=O)c1ncc(-n2ncc(C(=O)Nc3cnc(-n4nccn4)c(Cl)c3)c2C(F)(F)F)c2ccccc12 [Cpd 387, 4-(4-((5-chloro-6-(2H-1,2,3-triazol-2-yl)pyridin-3-yl)carbamoyl)-5-(trifluoromethyl)-1H-pyrazol-1-yl)isoquinoline-1-carboxamide] | 2190 nM | – | – | – | – |
| – | – | 93 nM | 68 nM | 302 nM | 19 nM | Nc1ncc(-n2ncc(C(=O)Nc3cnc(-n4nccn4)c(Cl)c3)c2C(F)(F)F)c2ccccc12 [Cpd 155, 1-(1-aminoisoquinolin-4-yl)-N-(5-chloro-6-(2H-1,2,3-triazol-2-yl)pyridin-3-yl)-5-(trifluoromethyl)-1H-pyrazole-4-carboxamide] | 1380 nM | – | – | – | – |
| – | – | 45 nM | 31 nM | 1150 nM | 58 nM | Cc1nc(-n2nccn2)c(C#N)cc1NC(=O)c1cnn(-c2cnc(N)c3ccccc23)c1C(F)(F)F [Cpd 338, 1-(1-aminoisoquinolin-4-yl)-N-(5-cyano-2-methyl-6-(2H-1,2,3-triazol-2-yl)pyridin-3-yl)-5-(trifluoromethyl)-1H-pyrazole-4-carboxamide] | 1440 nM | – | – | – | – |
| – | – | 25 nM | 24 nM | 220 nM | 19 nM | Nc1ncc(-n2ncc(C(=O)Nc3cnc(-n4nccn4)c(Cl)c3)c2C(F)(F)F)c2cccc(F)c12 [Cpd 110, 1-(1-amino-8-fluoroisoquinolin-4-yl)-N-(5-chloro-6-(2H-1,2,3-triazol-2-yl)pyridin-3-yl)-5-(trifluoromethyl)-1H-pyrazole-4-carboxamide] | 1440 nM | – | – | – | – |
| – | – | 117 nM | 79 nM | 521 nM | 41 nM | O=C(Nc1cnc(-n2nccn2)c(Cl)c1)c1cnn(-c2cccc3nccn23)c1C(F)(F)F [Cpd 193, N-(5-chloro-6-(2H-1,2,3-triazol-2-yl)pyridin-3-yl)-1-(imidazo[1,2-a]pyridin-5-yl)-5-(trifluoromethyl)-1H-pyrazole-4-carboxamide] | 3630 nM | – | – | – | – |
| – | – | 1780 nM | 912 nM | 1270 nM | 23 nM | Cn1ccc(-c2ncc(NC(=O)c3cnn(-c4cccc5c(=O)[nH]ccc45)c3C(F)(F)F)cc2Cl)n1 [Cpd 157, N-(5-chloro-6-(1-methyl-1H-pyrazol-3-yl)pyridin-3-yl)-1-(1-oxo-1,2-dihydroisoquinolin-5-yl)-5-(trifluoromethyl)-1H-pyrazole-4-carboxamide] | 7080 nM | – | – | – | – |
| – | – | 380 nM | 282 nM | 1390 nM | 40 nM | N#Cc1cc(NC(=O)c2cnn(-c3cccc4nccn34)c2C(F)(F)F)cnc1-n1nccn1 [Cpd 200, N-(5-cyano-6-(2H-1,2,3-triazol-2-yl)pyridin-3-yl)-1-(imidazo[1,2-a]pyridin-5-yl)-5-(trifluoromethyl)-1H-pyrazole-4-carboxamide] | 7410 nM | – | – | – | – |
| – | – | 141 nM | 95 nM | 571 nM | 19 nM | N#Cc1cc(NC(=O)c2cnn(-c3ccc(N)c4ccccc34)c2C(F)(F)F)cnc1-n1nccn1 [Cpd 132, 1-(4-aminonaphthalen-1-yl)-N-(5-cyano-6-(2H-1,2,3-triazol-2-yl)pyridin-3-yl)-5-(trifluoromethyl)-1H-pyrazole-4-carboxamide] | 7760 nM | – | – | – | – |
| – | – | 12 nM | 12 nM | 211 nM | 13 nM | O=C(Nc1cnc(-n2nccn2)c(Cl)c1)c1cnn(-c2cncc3c(F)cccc23)c1C(F)(F)F [Cpd 117, N-(5-chloro-6-(2H-1,2,3-triazol-2-yl)pyridin-3-yl)-1-(8-fluoroisoquinolin-4-yl)-5-(trifluoromethyl)-1H-pyrazole-4-carboxamide] | 1580 nM | – | – | – | – |

| Compound | IC50 [1] | IC50 [2] | IC50 ([3]; Homo sapiens) | IC50 ([4]; Homo sapiens) | IC50 ([5]; Homo sapiens, 96 h) | IC50 [7] | IC50 ([6]; Homo sapiens, 96 h) | IC50 [3] | IC50 [4] | IC50 [5] | IC50 [6] |
| --- | --- | --- | --- | --- | --- | --- | --- | --- | --- | --- | --- |
| N-(4-(4-(aminomethyl)-1H-pyrazol-1-yl)-3-chlorophenyl)-1-(quinolin-5-yl)-5-(trifluoromethyl)-1H-pyrazole-4-carboxamide [Cpd 174] | – | – | – | – | – | 59 nM | – | 251 nM | 112 nM | 804 nM | 1700 nM |
